# Assays:
# CYP450 2C9 = CYP450 2C9 (Homo sapiens, UniProt P11712); experiment: Generation of CCI-779 derivatives by CYP450 isozyme incubation; format: in vitro ADME
# CYP3A4 = target: T1, CYP3A4 (Homo sapiens, UniProt P08684); experiment: as above; format: in vitro ADME
# T1 construct: host or cells: E. coli (membrane preparation)
# Procedure: The invention provides a method of generating specific derivatives of CCI-779 by incubating CCI-779 with membranes of recombinant E. coli cells expressing human cytochrome P450-3A4 isozymes.
# In order to generate the specific hydroxylation derivatives of the invention, CCI-779 and CYP3A4 may be incubated in the presence of a reducing agent, such as NADH or NADPH. Suitably, CCI-779 and the enzyme can be present in a ratio of 300:1 to 500:1, and desirably about 330:1 CCI-779 to enzyme. In the examples below, these components are mixed to a final concentration of 0.1 mM CCI-779, 300 nM 3A4 enzyme, and 2 mM NADPH regenerate system. However, other concentrations can be readily used.
# To a 5L reactor containing CCI-779 514 mg (0.5 mmol), MgCl2 (0.4 M×100 ml), NADPH generating system (NADP sodium salt: 75 mg×100 mL, D-glucose-6-phospate: 60 mg/mL×100 mL; glucose-6-phosphate dehydrogenase: 25 units/mL×100 mL), and E. coli-expressed CYP-3A4 membrane (1500 nmol) was added potassium phosphate buffer solution to 5L. The mixture solution was incubated at 37° C. under oxygen atmosphere (sparging O2 at 0.3 L/min) with agitation of 125 rpm for one hour. After one-hour reaction, the reaction solution was cooled down to 25° C. on an ice bath and extracted with an equal volume of ethyl acetate twice. […]
# [1] = tested on: human glioblastoma cell line; conditions: human glioblastoma cell line in vitro; cited from earlier work
# human pancreatic tumors = conditions: several human pancreatic tumors in nude mice; cited from earlier work
# orthotopic glioma model = conditions: nude mice; cited from earlier work
# [2] = tested on: histologically diverse tumor cells; conditions: cited from earlier work
# [3] = tested on: human tumor xenografts of diverse histological types; conditions: nude mice, cited from earlier work
# CYP450 2E1 = CYP450 2E1 (Homo sapiens, UniProt P05181); experiment: Generation of CCI-779 derivatives by CYP450 isozyme incubation; format: in vitro ADME
# breast cancer lines = conditions: one of two breast cancer lines studied in vivo; cited from earlier work
# CYP450 2C19 = CYP450 2C19 (Homo sapiens, UniProt P33261); experiment: Generation of CCI-779 derivatives by CYP450 isozyme incubation; format: in vitro ADME
# CYP450 2C8 = target: T2, CYP450 2C8 (Homo sapiens, UniProt P10632); experiment: as above; format: in vitro ADME
# T2 sequence (P10632 1-490): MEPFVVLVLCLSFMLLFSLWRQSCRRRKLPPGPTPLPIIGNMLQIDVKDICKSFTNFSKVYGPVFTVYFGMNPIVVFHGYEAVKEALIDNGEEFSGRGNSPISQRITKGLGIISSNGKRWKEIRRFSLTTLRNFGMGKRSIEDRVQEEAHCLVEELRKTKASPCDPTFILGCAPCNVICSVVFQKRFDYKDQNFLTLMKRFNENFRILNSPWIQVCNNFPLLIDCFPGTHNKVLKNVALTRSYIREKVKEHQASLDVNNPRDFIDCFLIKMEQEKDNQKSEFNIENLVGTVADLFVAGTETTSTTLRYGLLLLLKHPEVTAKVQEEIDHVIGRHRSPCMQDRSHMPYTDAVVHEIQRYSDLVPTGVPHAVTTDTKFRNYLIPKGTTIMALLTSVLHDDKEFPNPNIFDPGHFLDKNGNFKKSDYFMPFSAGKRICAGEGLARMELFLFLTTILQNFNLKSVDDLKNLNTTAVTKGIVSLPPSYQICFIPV
# CYP450 2A6 = target: T3, CYP450 2A6 (Homo sapiens, UniProt P11509); experiment: as above; format: in vitro ADME
# T3 sequence (P11509 1-494): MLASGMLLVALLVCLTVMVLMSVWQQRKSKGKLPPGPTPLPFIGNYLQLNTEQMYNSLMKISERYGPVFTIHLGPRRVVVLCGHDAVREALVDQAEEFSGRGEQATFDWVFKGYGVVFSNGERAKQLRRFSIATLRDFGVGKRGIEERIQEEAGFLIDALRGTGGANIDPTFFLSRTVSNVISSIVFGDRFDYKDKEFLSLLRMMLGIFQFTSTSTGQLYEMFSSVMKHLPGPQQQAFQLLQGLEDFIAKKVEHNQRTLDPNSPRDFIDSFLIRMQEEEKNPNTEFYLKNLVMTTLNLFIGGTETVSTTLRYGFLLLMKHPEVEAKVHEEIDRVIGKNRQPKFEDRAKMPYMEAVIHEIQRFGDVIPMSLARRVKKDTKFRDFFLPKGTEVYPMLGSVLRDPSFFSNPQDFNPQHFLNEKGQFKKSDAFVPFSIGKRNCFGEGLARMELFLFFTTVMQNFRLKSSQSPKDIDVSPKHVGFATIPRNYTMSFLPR
# CYP450 2C9, sequence (P11712 whole entry): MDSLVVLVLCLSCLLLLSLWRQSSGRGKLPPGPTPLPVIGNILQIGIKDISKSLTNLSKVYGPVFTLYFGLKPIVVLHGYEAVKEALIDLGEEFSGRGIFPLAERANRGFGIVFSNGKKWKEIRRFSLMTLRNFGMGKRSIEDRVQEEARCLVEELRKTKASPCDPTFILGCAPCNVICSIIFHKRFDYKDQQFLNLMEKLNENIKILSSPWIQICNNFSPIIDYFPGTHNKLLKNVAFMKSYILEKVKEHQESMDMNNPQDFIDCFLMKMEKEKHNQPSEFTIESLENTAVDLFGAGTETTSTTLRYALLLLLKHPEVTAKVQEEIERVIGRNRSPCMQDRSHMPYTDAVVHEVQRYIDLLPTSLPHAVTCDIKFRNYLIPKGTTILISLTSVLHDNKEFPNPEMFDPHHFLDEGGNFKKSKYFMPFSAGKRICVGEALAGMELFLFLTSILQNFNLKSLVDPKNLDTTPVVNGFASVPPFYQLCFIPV
# T1 sequence (P08684 whole entry): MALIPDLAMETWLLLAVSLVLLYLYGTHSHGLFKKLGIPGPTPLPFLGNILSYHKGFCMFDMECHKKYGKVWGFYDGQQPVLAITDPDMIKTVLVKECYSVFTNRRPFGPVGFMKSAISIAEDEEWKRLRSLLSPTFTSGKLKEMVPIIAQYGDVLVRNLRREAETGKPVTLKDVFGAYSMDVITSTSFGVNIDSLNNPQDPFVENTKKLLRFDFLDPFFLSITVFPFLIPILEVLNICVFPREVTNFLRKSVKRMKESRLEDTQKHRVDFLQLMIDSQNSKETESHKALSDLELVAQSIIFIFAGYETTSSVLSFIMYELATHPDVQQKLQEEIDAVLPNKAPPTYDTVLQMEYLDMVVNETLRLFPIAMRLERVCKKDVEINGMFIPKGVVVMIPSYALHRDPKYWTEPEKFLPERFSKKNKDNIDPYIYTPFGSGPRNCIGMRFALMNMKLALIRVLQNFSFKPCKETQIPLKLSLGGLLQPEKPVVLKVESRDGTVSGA
# CYP450 2C19, sequence (P33261 whole entry): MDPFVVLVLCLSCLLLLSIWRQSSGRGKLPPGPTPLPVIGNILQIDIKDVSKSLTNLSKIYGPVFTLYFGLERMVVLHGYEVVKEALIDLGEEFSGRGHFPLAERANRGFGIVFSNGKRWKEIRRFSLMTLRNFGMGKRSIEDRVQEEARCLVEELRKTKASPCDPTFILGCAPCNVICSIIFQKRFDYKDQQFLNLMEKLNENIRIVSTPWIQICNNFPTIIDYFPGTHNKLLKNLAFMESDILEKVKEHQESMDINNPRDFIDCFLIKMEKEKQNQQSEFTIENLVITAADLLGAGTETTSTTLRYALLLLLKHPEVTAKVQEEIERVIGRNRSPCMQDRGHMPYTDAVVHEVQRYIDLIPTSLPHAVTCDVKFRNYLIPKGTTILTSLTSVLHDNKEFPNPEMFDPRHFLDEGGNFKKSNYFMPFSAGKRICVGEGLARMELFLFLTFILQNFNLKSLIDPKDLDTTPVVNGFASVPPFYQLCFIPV
# CYP450 2E1, sequence (P05181 whole entry): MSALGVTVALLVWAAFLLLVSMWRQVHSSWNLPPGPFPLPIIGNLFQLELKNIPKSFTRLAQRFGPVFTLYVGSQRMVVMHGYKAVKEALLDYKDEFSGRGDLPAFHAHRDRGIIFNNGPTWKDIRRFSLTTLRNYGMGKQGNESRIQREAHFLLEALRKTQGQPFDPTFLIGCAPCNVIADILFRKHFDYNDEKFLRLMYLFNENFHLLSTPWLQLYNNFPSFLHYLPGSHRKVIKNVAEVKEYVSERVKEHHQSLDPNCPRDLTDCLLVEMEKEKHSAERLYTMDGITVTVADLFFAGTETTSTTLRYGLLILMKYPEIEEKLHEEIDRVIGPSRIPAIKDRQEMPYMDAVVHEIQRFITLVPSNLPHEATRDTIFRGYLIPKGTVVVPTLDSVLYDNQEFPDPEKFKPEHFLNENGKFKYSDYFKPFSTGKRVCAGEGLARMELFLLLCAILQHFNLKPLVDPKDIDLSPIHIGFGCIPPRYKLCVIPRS
smiles,measurement,setting,value
"CO[C@H]1CC2CC[C@@H](C)[C@@](O)(O2)C(=O)C(=O)N2CCCC[C@H]2C(=O)O[C@H]([C@H](C)C[C@@H]2CC[C@@H](OC(=O)C(C)(CO)CO)[C@H](OC)C2)CC(=O)[C@H](C)/C=C(\C)[C@@H](O)[C@@H](OC)C(=O)[C@H](C)C[C@H](C)/C=C/C=C/C=C/1C [CCI-779, Rapamycin 42-ester with 2,2-bis(hydroxymethyl)propionic acid]",generation of CCI-779 derivatives by the enzyme,CYP450 2C9,not able to generate these derivatives
same,generation of CCI-779 derivatives by the enzyme,CYP3A4,the only member of this family of enzymes to specifically generate CCI-779 derivatives
same,growth factor (platelet-derived)-induced stimulation,[1],markedly suppressed
same,tumor growth,human pancreatic tumors,inhibited
same,activity in orthotopic glioma model,orthotopic glioma model,active
same,sensitivity of tumor lines,"[2]; CNS cancer, leukemia (T-cell), breast cancer, prostate cancer and melanoma lines",among the most sensitive
same,inhibition of growth of tumor cells,"[2]; in vitro, a number of histologically diverse tumor cells",inhibit the growth
same,cell cycle effect,[2]; in vitro,arrested cells in the G1 phase
same,sensitivity of gliomas,[3]; gliomas,particularly sensitive
same,activity against human tumor xenografts,[3],has activity
same,generation of CCI-779 derivatives by the enzyme,CYP450 2E1,not able to generate these derivatives
same,tumor growth,breast cancer lines,inhibited
same,generation of CCI-779 derivatives by the enzyme,CYP450 2C19,not able to generate these derivatives
same,generation of CCI-779 derivatives by the enzyme,CYP450 2C8,not able to generate these derivatives
same,generation of CCI-779 derivatives by the enzyme,CYP450 2A6,not able to generate these derivatives

# Source: patent publication US7332601B2, “CCI-779 derivatives and methods of making same” (Wyeth, priority 2004, dated 2008)
